Data set [1] relates to P. acnes-induced IL-8 production by THP-1 cells. Put plainly: inhibition of P. acnes-induced IL-8 production by THP-1 cells (enzyme immunoassay). Type of data set: cell-based, Human. Particulars: 10, 20, 50 μM; P. acnes MOI 75; 24-h incubation; p<0.001. The procedure: Propionibacterium acnes (BCRC 10723, purchased from the Bioresource Collection and Research Center, Hsinchu, Taiwan) was cultured in a brain heart infusion (BHI) broth. The bacteria were cultured in an anaerobic atmosphere using BBL GasPak systems.

The subject of data set [2] is Propionibacterium acnes-induced ear swelling in ICR mice. Kind of data set: P. acnes-induced mouse ear inflammation (ear thickness, biopsy weight, redness, neutrophil infiltration). Type of data set: in vivo. From the text:
In the animal experiment of this embodiment, four-week-old male […] were purchased from the Experimental Animal Center of the National Taiwan University. After 1 week of adaptation, the mice were randomly divided into three groups of six animals each. The three groups of mice are, namely a blank control group of mice injected with a phosphate buffer solution (hereinafter referred to as “PBS-control”), an experimental group of mice injected with Propionibacterium acnes (hereinafter referred to as “P. acnes group”), and an experimental group of mice injected with Propionibacterium acnes and beta-ionone (hereinafter referred to as “P. acnes+beta-ionone group”). Mice were housed in plastic cages, under standard temperature-controlled conditions with a 12 h/12 h light-dark cycle and free access to food and water throughout the experiments. The experiments are each carried out by following the steps described below, so as to inject 10 µL of liquid (phosphate buffer solution (PBS), P. acnes, or P. acnes+beta-ionone) into the mice' ears, respectively. […] Mercy killing is carried out to all the mice 24 hours after the aforesaid injections, and then the ear's swelling induced by P. acnes was quantified as the percentage increases in the thickness and weight of the left ear biopsy. The thickness of the mice's ears is measured with a micrometer caliper. […]

For data set [3], the system named is human monocytic THP-1 cells. Kind of data set: cytotoxicity of beta-ionone on THP-1 cells (cellular viability).
Procedure: Human monocytic THP-1 cells (BCRC 60430, purchased from the Bioresource Collection and Research Center, Hsinchu, Taiwan) were cultured in RPMI 1640 medium and supplemented with 10% of fetal bovine serum, 0.05 mM of 2-mercaptoethanol, and 100 units/mL of penicillin G sodium, 100 μg/mL of streptomycin sulfate, and 250 ng/mL of amphotericin B at 37° C. in a 5% CO2 humidified environment.
THP-1 cells are seeded at 2×10^5 cells/well in a 96-well plate with FBS-free RMPI 1640 medium, and are stimulated with Propionibacterium acnes (multiplicity of infection=75) alone or in combination with various concentrations of 10, 20, 50 μM of beta-ionone for a 24-h incubation.

A value given as a limit tells only on which side of the number the result lay.

Take `CC(=O)/C=C/C1=C(C)CCCC1(C)C` [beta-ionone, (3E)-4-(2,6,6-trimethylcyclohex-1-en-1-yl)but-3-en-2-one]: in data set [1], the “inhibitory effect on P. acnes-induced IL-8 production by THP-1 cells” value is given as “marked inhibitive effect”. In addition, the “effect on redness, neutrophils infiltration and swelling (ear thickness and biopsy weight) caused by P. acnes” value in data set [2] (50 μg/10 μL injected into ear with 6×10^7 CFU P. acnes, 24 hours, p<0.01, p<0.001) is “effective in reducing the redness, neutrophils infiltration, and swelling”. Further, the “redness and swelling of right ears (P. acnes + beta-ionone) versus left ears (P. acnes)” value in data set [2] (50 μg/10 μL injected into ear, 24 hours after injection, FIG. 9) is “significantly abated redness and swelling”. Besides, in data set [3] (beta-ionone at 10, 20, 50 μM), the “cytotoxic effect on human monocytic THP-1 cells” value was “does not have any cytotoxic effect”. In data set [3] (cellular viability compared with untreated control, p<0.05, p<0.001), the “concentration with cytotoxic effect on THP-1 cells” value was at least 100 µM.

(Values after patent US20160143862A1, “METHOD OF USING BETA-IONONE TO TREAT AND PREVENT DISEASE INDUCED BY PROPIONIBACTERIUM ACNES” (NATIONAL TAIWAN NORMAL UNIVERSTITY, priority 2014, published 2016).)
